System: NCI60 cell lines
Experiment: NCI60 cell line panel
Type: cell-based, human
Experimental: The Developmental Therapeutics Program (DTP) of NCI has evaluated more than 100,000 pure compounds and more than 34,000 crude extracts against the panel of human tumor cell lines. The resultant data are analyzed using a program called COMPARE, that rank the entire database of tested compounds in the order of the similarity of the responses. […] Thus, the NCI60 databases is highly useful to the cancer research community. Further experiments were conducted that tested some of the active compounds in a panel of NCI60 cell line to relate our compounds with some known inhibitors to have an idea of possible mechanism of action.
In order to understand the selectivity of these compounds in different cancer types, some of them were tested against a panel of 60 cell lines (Table XXXIX).

**Q.** Which “GIPRCNT: % Growth inhibition” value (Breast Cancer, BT-549) does the source give for CCN(CC)CCCC(C)Nc1cnc(C(=O)Nc2ccc(Cl)c3cccnc23)cn1 (centres unmarked) [J9, N-(5-chloroquinolin-8-yl)-5-((5-(diethylamino)pentan-2-yl)amino)pyrazine-2-carboxamide] here?
**A.** The value was 80.08%.

**Q.** What about the “GIPRCNT: % Growth inhibition” value (Breast Cancer, HS 578T) of the same compound?
**A.** Its value is 51.41%.

**Q.** What about the “GIPRCNT: % Growth inhibition” value (Breast Cancer, MCF7) of the same compound?
**A.** Its value is −2.145%.

**Q.** What about the “GIPRCNT: % Growth inhibition” value (Breast Cancer, MDA-MB-231/ATCC) of the same compound?
**A.** The value was −29.6765%.

**Q.** And the “GIPRCNT: % Growth inhibition” value (Breast Cancer, MDA-MB-468)?
**A.** The value was −28.0145%.

**Q.** And the “GIPRCNT: % Growth inhibition” value (Breast Cancer, T-47D)?
**A.** The value was −49.3289%.

**Q.** What about the “GIPRCNT: % Growth inhibition” value (CNS Cancer, SF-268) of the same compound?
**A.** The value was 35.85%.

**Q.** And the “GIPRCNT: % Growth inhibition” value (CNS Cancer, SF-295)?
**A.** Its value is 63.03%.

**Q.** And the “GIPRCNT: % Growth inhibition” value (CNS Cancer, SF-539)?
**A.** Its value is −73.563%.

**Q.** What about the “GIPRCNT: % Growth inhibition” value (CNS Cancer, SNB-19) of the same compound?
**A.** The value was 49.65%.

**Q.** What about the “GIPRCNT: % Growth inhibition” value (CNS Cancer, SNB-75) of the same compound?
**A.** Its value is 41.7%.

**Q.** What about the “GIPRCNT: % Growth inhibition” value (CNS Cancer, U251) of the same compound?
**A.** The value was −35.3044%.

**Q.** What about the “GIPRCNT: % Growth inhibition” value (Colon Cancer, COLO 205) of the same compound?
**A.** Its value is −66.6925%.

**Q.** What about the “GIPRCNT: % Growth inhibition” value (Colon Cancer, HCC-2998) of the same compound?
**A.** The value was 32.59%.

**Q.** And the “GIPRCNT: % Growth inhibition” value (Colon Cancer, HCT-15)?
**A.** The value was 3.732%.

**Q.** What about the “GIPRCNT: % Growth inhibition” value (Colon Cancer, HCT-116) of the same compound?
**A.** The value was −52.4351%.

**Q.** And the “GIPRCNT: % Growth inhibition” value (Colon Cancer, HT29)?
**A.** Its value is −49.3651%.

**Q.** What about the “GIPRCNT: % Growth inhibition” value (Colon Cancer, KM12) of the same compound?
**A.** The value was 30.3%.

**Q.** And the “GIPRCNT: % Growth inhibition” value (Colon Cancer, SW-620)?
**A.** The value was 0.6189%.

**Q.** What about the “GIPRCNT: % Growth inhibition” value (Leukemia, CCRF-CEM) of the same compound?
**A.** The value was 5.288%.

**Q.** And the “GIPRCNT: % Growth inhibition” value (Leukemia, HL-60(TB))?
**A.** Its value is −63.3005%.

**Q.** What about the “GIPRCNT: % Growth inhibition” value (Leukemia, K-562) of the same compound?
**A.** The value was −45.7589%.

**Q.** And the “GIPRCNT: % Growth inhibition” value (Leukemia, MOLT-4)?
**A.** The value was 2.901%.

**Q.** What about the “GIPRCNT: % Growth inhibition” value (Leukemia, RPMI-8226) of the same compound?
**A.** The value was 2.196%.

**Q.** What about the “GIPRCNT: % Growth inhibition” value (Leukemia, SR) of the same compound?
**A.** Its value is 1.416%.

**Q.** What about the “GIPRCNT: % Growth inhibition” value (Melanoma, LOX IMVI) of the same compound?
**A.** Its value is −83.8894%.

**Q.** What about the “GIPRCNT: % Growth inhibition” value (Melanoma, M14) of the same compound?
**A.** The value was −73.1499%.

**Q.** What about the “GIPRCNT: % Growth inhibition” value (Melanoma, MALME-3M) of the same compound?
**A.** Its value is −71.7698%.

**Q.** And the “GIPRCNT: % Growth inhibition” value (Melanoma, MDA-MB-435)?
**A.** The value was −57.8225%.

**Q.** And the “GIPRCNT: % Growth inhibition” value (Melanoma, SK-MEL-2)?
**A.** The value was 57.84%.

**Q.** And the “GIPRCNT: % Growth inhibition” value (Melanoma, SK-MEL-5)?
**A.** The value was −3.699%.

**Q.** And the “GIPRCNT: % Growth inhibition” value (Melanoma, UACC-62)?
**A.** The value was −52.4398%.

**Q.** And the “GIPRCNT: % Growth inhibition” value (Melanoma, UACC-257)?
**A.** The value was −32.9601%.

**Q.** And the “GIPRCNT: % Growth inhibition” value (Non-Small Cell Lung Cancer, A549/ATCC)?
**A.** Its value is 23.43%.

**Q.** What about the “GIPRCNT: % Growth inhibition” value (Non-Small Cell Lung Cancer, EKVX) of the same compound?
**A.** The value was 66.07%.

**Q.** And the “GIPRCNT: % Growth inhibition” value (Non-Small Cell Lung Cancer, HOP-62)?
**A.** Its value is 43.04%.

**Q.** And the “GIPRCNT: % Growth inhibition” value (Non-Small Cell Lung Cancer, HOP-92)?
**A.** Its value is 38.78%.

**Q.** And the “GIPRCNT: % Growth inhibition” value (Non-Small Cell Lung Cancer, NCI-H23)?
**A.** Its value is 80.43%.

**Q.** And the “GIPRCNT: % Growth inhibition” value (Non-Small Cell Lung Cancer, NCI-H226)?
**A.** Its value is 39.13%.

**Q.** And the “GIPRCNT: % Growth inhibition” value (Non-Small Cell Lung Cancer, NCI-H322M)?
**A.** Its value is 35.3%.

**Q.** And the “GIPRCNT: % Growth inhibition” value (Non-Small Cell Lung Cancer, NCI-H460)?
**A.** The value was 3.469%.

**Q.** What about the “GIPRCNT: % Growth inhibition” value (Non-Small Cell Lung Cancer, NCI-H522) of the same compound?
**A.** Its value is 4.415%.

**Q.** And the “GIPRCNT: % Growth inhibition” value (Ovarian Cancer, IGROV1)?
**A.** The value was 44.22%.

**Q.** And the “GIPRCNT: % Growth inhibition” value (Ovarian Cancer, NCI/ADR-RES)?
**A.** Its value is 52.19%.

**Q.** And the “GIPRCNT: % Growth inhibition” value (Ovarian Cancer, OVCAR-3)?
**A.** The value was −23.663%.

**Q.** And the “GIPRCNT: % Growth inhibition” value (Ovarian Cancer, OVCAR-4)?
**A.** Its value is 51.32%.

**Q.** What about the “GIPRCNT: % Growth inhibition” value (Ovarian Cancer, OVCAR-5) of the same compound?
**A.** Its value is 53.28%.

**Q.** And the “GIPRCNT: % Growth inhibition” value (Ovarian Cancer, OVCAR-8)?
**A.** The value was 27.34%.

**Q.** What about the “GIPRCNT: % Growth inhibition” value (Ovarian Cancer, SK-OV-3) of the same compound?
**A.** The value was 79.51%.

**Q.** What about the “GIPRCNT: % Growth inhibition” value (Prostate Cancer, DU-145) of the same compound?
**A.** Its value is 53.1%.

**Q.** What about the “GIPRCNT: % Growth inhibition” value (Prostate Cancer, PC-3) of the same compound?
**A.** The value was 39.38%.

**Q.** And the “GIPRCNT: % Growth inhibition” value (Renal Cancer, 786-0)?
**A.** The value was −44.1831%.

**Q.** What about the “GIPRCNT: % Growth inhibition” value (Renal Cancer, A498) of the same compound?
**A.** Its value is 53.99%.

**Q.** And the “GIPRCNT: % Growth inhibition” value (Renal Cancer, ACHN)?
**A.** The value was −54.7701%.

**Q.** What about the “GIPRCNT: % Growth inhibition” value (Renal Cancer, CAKI-1) of the same compound?
**A.** Its value is 23.14%.

**Q.** And the “GIPRCNT: % Growth inhibition” value (Renal Cancer, RXF 393)?
**A.** Its value is 18.75%.

**Q.** What about the “GIPRCNT: % Growth inhibition” value (Renal Cancer, SN12C) of the same compound?
**A.** The value was 31.6819%.

**Q.** And the “GIPRCNT: % Growth inhibition” value (Renal Cancer, TK-10)?
**A.** The value was 57.61%.

**Q.** And the “GIPRCNT: % Growth inhibition” value (Renal Cancer, UO-31)?
**A.** The value was 23.83%.

Source: patent publication US20220081412A1, “QUINOLINYL-PYRAZINE-CARBOXAMIDE COMPOUNDS AND USES THEREOF” (The Regents of the University of Michigan, priority 2018, published 2022)
